Measurements published in the NIST ThermoML archive (doi:10.1016/j.jct.2019.01.015).
Numbers after ± are expanded uncertainties.

Experiments:
[1] = Crystal; DSC
[2] = Molar enthalpy of transition or fusion; settings: Crystal; DSC

Triple point temperature [1]: 402.15 ± 1 K
Molar enthalpy of transition or fusion [2]: 10.7 ± 0.37 kJ/mol
Compound: C=NCC#N [methyleneaminoacetonitrile]
